Consider 23 compounds from US11530186B2, “Inhibitors for the β-catenin / T-cell factor protein-protein interaction” (H. LEE MOFFITT CANCER CENTER AND RESEARCH INSTITUTE, INC., priority 2018, dated 2022).

SMILES strings stand for the structures. Where two headings read alike, the source gives them in different places. Some results are limits rather than exact numbers.

In the experiment the target is T1, β-catenin/Tcf protein-protein interaction (Homo sapiens, UniProt P35222).
T1 construct: Wild-type β-catenin (residues 138-781) were cloned into a pET-28b vector; 6×histidine (C); made in house; host or cells: E. coli BL21 DE3
T1 sequence (P35222 138-781): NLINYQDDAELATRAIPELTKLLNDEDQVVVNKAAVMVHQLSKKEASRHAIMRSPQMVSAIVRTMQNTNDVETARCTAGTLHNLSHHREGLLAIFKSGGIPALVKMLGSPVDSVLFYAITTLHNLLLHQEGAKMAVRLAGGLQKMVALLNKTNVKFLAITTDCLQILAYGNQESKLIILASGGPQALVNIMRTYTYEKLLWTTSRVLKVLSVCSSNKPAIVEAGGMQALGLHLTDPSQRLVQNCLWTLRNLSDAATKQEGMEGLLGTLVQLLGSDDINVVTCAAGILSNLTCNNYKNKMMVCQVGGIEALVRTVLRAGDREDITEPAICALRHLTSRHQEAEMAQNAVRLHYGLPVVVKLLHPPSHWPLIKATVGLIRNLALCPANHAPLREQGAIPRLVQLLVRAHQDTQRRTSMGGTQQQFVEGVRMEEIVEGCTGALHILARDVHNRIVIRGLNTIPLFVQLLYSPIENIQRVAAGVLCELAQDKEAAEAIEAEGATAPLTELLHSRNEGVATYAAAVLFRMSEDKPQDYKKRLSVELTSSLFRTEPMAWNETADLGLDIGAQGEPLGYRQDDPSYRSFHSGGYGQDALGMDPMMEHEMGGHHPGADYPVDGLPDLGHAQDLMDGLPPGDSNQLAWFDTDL
Description: FP competitive inhibition assay. It is filed as binding. On the procedure: Protein Expression and Purification. Wild-type β-catenin (residues 138-781) were cloned into a pET-28b vector carrying a C-terminal 6×histidine (Novagen) and transformed into E. coli BL21 DE3 (Novagen). Cells were cultured in LB medium with 30 μg/mL kanamycin until the OD600 was approximately 0.8, and then protein expression was induced with 400 μM of IPTG at 20° C. overnight. Cells were lysed by sonication. The proteins were purified by Ni-NTA affinity chromatography (30210, Qiagen) and dialyzed against a buffer containing 20 mM of Tris (pH 8.8), 100 mM NaCl, 10% glycerol, and 3 mM DTT. The purity of β-catenin was set to >95% as determined by SDS-PAGE gel analysis. Native non-denaturing gel electrophoresis experiment and the thermal-shift assay on an iCycler iQ Real Time Detection System (Bio-Rad) were performed for each purified protein. In the thermal shift assay, protein unfolding was evaluated through measuring the fluorescence changes of fluorescent dye Sypro Orange with purified β-catenin proteins. A temperature increment of 1° C./min was applied to monitor protein stability and detect protein aggregation. CD spectra were measured on a J-815 spectropolarimeter (Jasco). All spectra were recorded using a 1 mm path-length quartz cell. The CD spectra were averaged over three scans, and the wavelength was scanned from 260 to 190 nm in step of 1 nm. All spectra were recorded at room temperature, and the baseline was corrected by subtracting the CD spectra of a blank control containing all of the substances except protein. Samples were prepared at a concentration around 1-5 μM in a buffer of 10 mM potassium phosphate and 100 mM potassium fluoride at pH 7.0 to ensure that the transmission of light through the sample was not restricted. All proteins were stable, and no aggregation was observed under storage or assay conditions. Proteins were aliquoted and stored at −80° C. C-terminally fluorescein-labeled human Tcf4 (residues 7-51) was synthesized and HPLC purified with purity >95%. The structures were validated by LC/MS (liquid chromatography/mass spectrometry).
FP Assays. The procedures for the FP competitive inhibition assays have been described previously (Zhang, M.; Huang, Z.; Yu, B.; Ji, H. New homogeneous high-throughput assays for inhibitors of β-catenin/Tcf protein-protein interactions Anal. Biochem. 2012, 424, 57-63; Zhang, M.; Catrow, J. L.; Ji, H. High-throughput selectivity assays for small-molecule inhibitors of β-catenin/T-cell factor protein-protein interactions. ACS Med. Chem. Lett. 2013, 4, 306-311). Briefly, all of the tested compounds were prepared as 10 mM DMSO stocks. In the primary screen, the concentrations of the compounds and DMSO were set to 50 μM and 1% (v/v). Only the compounds which FP signal decreases were greater than 50% in the single-point β-catenin/Tcf assay were evaluated by counter screen. […] In the FP competitive inhibition assay, 10 nM human β-catenin and 2.5 nM of C-terminally fluorescein-labeled human Tcf4 were incubated in an assay buffer of 137 mM NaCl, 2.7 mM KCl, 10 mM Na2HPO4, 2 mM KH2PO4, 100 μg/mL of bovine γ-globulin, and 0.01% Triton-X100 for 15 min at 4° C. Bovine γ-globulin and Triton-X100 were included in the assay buffer to decrease the likelihood of compound acting by aggregate formation. Different concentrations of the tested compounds in the assay buffer were added to each test plate to make a final volume of 100 μL. Each assay plate was covered black and gently mixed on an orbital shaker at 4° C. for 1.5 h to reach equilibrium before the polarization values were read. The IC50 value was determined by nonlinear least-square analysis of GraphPad Prism 5.0. The Ki values were derived (Nikolovska-Coleska, Z.; Wang, R.; Fang, X.; Pan, H.; Tomita, Y.; Li, P.; Roller, P. P.; Krajewski, K.; Saito, N. G.; Stuckey, J. A.; Wang, S. Development and optimization of a binding assay for the XIAP BIR3 domain using fluorescence polarization. Anal. Biochem. 2004, 332, 261-273). […]

The mark [1] stands for this setting: Assay 1, mean ± SD (n = 3), read-out: Ki ± SD, Assay 1.
Setting [2] is: Assay 2, mean ± SD (n = 3), read-out: Ki ± SD, Assay 2.

For orientation: Ki means a measure of affinity in units of concentration, obtained from inhibition or displacement.

In the case of `O=C(O)c1cccc(CCc2nn[nH]n2)c1` [Compound 1, 3-(2-(2H-tetrazol-5-yl)ethyl)benzoic acid], the inhibition constant Ki under setting [1] was 990 ± 36 µM.
Take `Cc1cn(CCc2nn[nH]n2)c2ccccc12` [Compound 2, 1-(2-(2H-tetrazol-5-yl)ethyl)-3-methyl-1H-indole]: the inhibition constant (Ki) reads like this: under setting [1], 348 ± 1.3 µM; under setting [2], 780 ± 100 µM.
As for `Cc1c(C)n(CCc2nn[nH]n2)c2ccccc12` [Compound 3, 1-(2-(2H-tetrazol-5-yl)ethyl)-2,3-dimethyl-1H-indole], under setting [1], the inhibitory constant (Ki) worked out at 250 ± 1.2 µM.
Turning to `O=C(O)c1ccc2c(ccn2CCc2nn[nH]n2)c1` [Compound 4, 1-(2-(2H-tetrazol-5-yl)ethyl)-1H-indole-5-carboxylic acid], under setting [1], the Ki amounted to 550 ± 56 µM.
On to `O=C(O)c1ccc2c(c1)c(CCc1ccccc1)cn2CCc1nn[nH]n1` [Compound 5, 1-(2-(2H-tetrazol-5-yl)ethyl)-3-phenethyl-1H-indole-5-carboxylic acid], for which, under setting [1], the Ki stood at 62 ± 12 µM.
As to `O=C(O)c1ccc2c(c1)c(CCc1ccc(Cl)cc1)cn2CCc1nn[nH]n1` [Compound 6, 1-(2-(2H-tetrazol-5-yl)ethyl)-3-(4-chlorophenethyl)-1H-indole-5-carboxylic acid], the inhibition constant (Ki) reads like this: under setting [1], 26 ± 2.3 µM; under setting [2], 19 ± 2.5 µM.
In the case of `Cc1ccc(CCc2cn(CCc3nn[nH]n3)c3ccc(C(=O)O)cc23)cc1` [Compound 7, 1-(2-(2H-tetrazol-5-yl)ethyl)-3-(4-methylphenethyl)-1H-indole-5-carboxylic acid], the Ki under setting [1] is 27 ± 4 µM.
For the compound `COc1ccc(CCc2cn(CCc3nn[nH]n3)c3ccc(C(=O)O)cc23)cc1` [Compound 8], the Ki under setting [1] turned out to be 78 ± 10 µM.
`O=C(O)c1ccc2c(c1)c(CCc1ccc(C(F)(F)F)cc1)cn2CCc1nn[nH]n1` [Compound 9, 1-(2-(2H-tetrazol-5-yl)ethyl)-3-(4-(trifluoromethyl)phenethyl)-1H-indole-5-carboxylic acid]: the Ki under setting [1] was found to be 31 ± 5.9 µM.
Regarding `O=C(O)c1ccc2c(c1)c(CCc1ccc(OC(F)(F)F)cc1)cn2CCc1nn[nH]n1` [Compound 10, 1-(2-(2H-tetrazol-5-yl)ethyl)-3-(4-(trifluoromethoxy)phenethyl)-1H-indole-5-carboxylic acid], under setting [1], the Ki turned out to be 22 ± 3.1 µM.
Regarding `O=C(O)c1ccc2c(c1)c(CCc1cccc(Cl)c1)cn2CCc1nn[nH]n1` [Compound 11, 1-(2-(2H-tetrazol-5-yl)ethyl)-3-(3-chlorophenethyl)-1H-indole-5-carboxylic acid], the inhibitory constant (Ki) is, setting by setting: under setting [1], 27 ± 4 µM; under setting [2], 12 ± 2.2 µM.
Turning to `O=C(O)c1ccc2c(c1)c(CCc1ccc(Cl)c(Cl)c1)cn2CCc1nn[nH]n1` [Compound 12, 1-(2-(2H-tetrazol-5-yl)ethyl)-3-(3,4-dichlorophenethyl)-1H-indole-5-carboxylic acid], the Ki amounted to 6.6 ± 0.44 µM under setting [1] and 41 ± 1.5 µM under setting [2].
Turning to `O=C(O)c1ccc2c(c1)c(CCc1ccc3ccccc3c1)cn2CCc1nn[nH]n1` [Compound 13, 1-(2-(2H-tetrazol-5-yl)ethyl)-3-(2-(naphthalen-2-yl)ethyl)-1H-indole-5-carboxylic acid], under setting [1], the inhibition constant (Ki) is 6.5 ± 1 µM.
On to `O=C(O)c1ccc2c(c1)c(CCc1cccc3ccccc13)cn2CCc1nn[nH]n1` [Compound 14, 1-(2-(2H-tetrazol-5-yl)ethyl)-3-(2-(naphthalen-1-yl)ethyl)-1H-indole-5-carboxylic acid], for which the inhibition constant Ki by setting is: under setting [1], 4.6 ± 0.36 µM; under setting [2], 3.5 ± 0.71 µM.
Taken in the same sequence, the figures for `O=C(O)c1ccc2c(c1)c(CCc1nccs1)cn2CCc1nn[nH]n1` [Compound 15, 1-(2-(2H-tetrazol-5-yl)ethyl)-3-(2-(thiazol-2-yl)ethyl)-1H-indole-5-carboxylic acid] were 29 ± 1.5 µM and above 51 µM.
As for `O=C(O)c1ccc2c(c1)c(CCc1ccncc1)cn2CCc1nn[nH]n1` [Compound 16, 1-(2-(2H-tetrazol-5-yl)ethyl)-3-(2-(pyridin-4-yl)ethyl)-1H-indole-5-carboxylic acid], the Ki runs as follows: under setting [1], 18 ± 1.6 µM; under setting [2], 18 ± 0.67 µM.
As to `Cc1ccc(CCc2cn(CCc3nn[nH]n3)c3ccc(C(=O)O)cc23)nc1` [Compound 17, 1-(2-(2H-tetrazol-5-yl)ethyl)-3-(2-(5-methylpyridin-2-yl)ethyl)-1H-indole-5-carboxylic acid], the inhibitory constant (Ki) under setting [1] is 32 ± 3.9 µM.
Regarding `O=C(O)c1ccc2c(c1)c(CCc1ccc(-c3ccccc3)cc1)cn2CCc1nn[nH]n1` [Compound 18, 1-(2-(2H-tetrazol-5-yl)ethyl)-3-(2-([1,1′-biphenyl]-4-yl)ethyl)-1H-indole-5-carboxylic acid], the inhibition constant (Ki) reads like this: under setting [1], 1.1 ± 0.12 µM; under setting [2], 1.6 ± 0.23 µM.
In the case of `O=C(O)c1ccc2c(c1)c(CCc1ccc(N3CCOCC3)cc1)cn2CCc1nn[nH]n1` [Compound 19, 1-(2-(2H-tetrazol-5-yl)ethyl)-3-(4-morpholinophenethyl)-1H-indole-5-carboxylic acid], the inhibition constant (Ki) under setting [1] was above 51 µM.
For `O=C(O)c1ccc2c(c1)c(CCC1CCOCC1)cn2CCc1nn[nH]n1` [Compound 21, 1-(2-(2H-tetrazol-5-yl)ethyl)-3-(2-(tetrahydro-2H-pyran-4-yl)ethyl)-1H-indole-5-carboxylic acid], the Ki is, setting by setting: under setting [1], 6.6 ± 0.28 µM; under setting [2], 7.6 ± 0.65 µM; (Assay 3, mean ± SD (n = 3), read-out: Ki ± SD, Assay 3) 10 ± 0.95 µM; (Assay 4, mean ± SD (n = 3), read-out: Ki ± SD, Assay 4) 5.7 ± 1.1 µM.
With `O=C(O)c1ccc2c(c1)c(CCc1ccc3c(c1)OCCO3)cn2CCc1nn[nH]n1` [Compound 22, 1-(2-(2H-tetrazol-5-yl)ethyl)-3-(2-(2,3-dihydrobenzo[b][1,4]dioxin-6-yl)ethyl)-1H-indole-5-carboxylic acid], the Ki under setting [1] turned out to be 35 ± 1.2 µM.
For `O=C(O)CCn1cc(CCc2ccc(Cl)cc2)c2cc(C(=O)O)ccc21` [Compound 23, 1-(2-carboxyethyl)-3-(4-chlorophenethyl)-1H-indole-5-carboxylic acid], the Ki under setting [1] turned out to be 94 ± 9.6 µM.
As for `Cc1ccc(CCc2cn(CCC(=O)O)c3ccc(C(=O)O)cc23)cc1` [Compound 24, 1-(2-carboxyethyl)-3-(4-methylphenethyl)-1H-indole-5-carboxylic acid], under setting [1], the Ki was 77 ± 4.5 µM.
